The values below are quoted from earlier work in patent publication US20260315500A1, “SOLID CANNABINOID COMPOSITION FOR PARENTERAL USE” (Bender Analytical Holding B.V., priority 2023, published 2026).

The test system of one series is neuronal and glial cells. The following applies: preclinical; functional, neuroimaging, histologic and biochemical studies.
For series [1] the following is noted: 23° C.

Values after ≈ are worked out from the molar mass of the structure shown.

In the case of `C=C(C)[C@@H]1CCC(C)=C[C@H]1c1c(O)cc(CCCCC)cc1O` [Cannabidiol], in the series with neuronal and glial cells, the neuroprotective effects entry was “protects neuronal and glial cells, with a remarkable effect on preserving normal myelinogenesis”.

With `CCCCCc1cc(O)c2c(c1)OC(C)(C)[C@@H]1CCC(C)=C[C@@H]21` [Tetrahydrocannabinol (THC), Tetrahydrocannabinol], in series [1], the water solubility was 2.8 µg/mL (≈ 8.9 µM).
